Source: PMC8500670, “A selective WDR5 degrader inhibits acute myeloid leukemia in patient-derived mouse models” (Science translational medicine, 2021)
Where two headings read alike, the source gives them in different places.

Tests used:
Test in all cases: biochemical
SET1b Complex = SET1b Complex (Homo sapiens, UniProt Q9UPS6); parameters: gene SETD1B; Complex; protein methyltransferase selectivity panel, enzyme activity relative to DMSO controls, single concentration in duplicate; settings: Substrate:=Core Histone
Sequence of SET1b Complex (Q15291 whole entry): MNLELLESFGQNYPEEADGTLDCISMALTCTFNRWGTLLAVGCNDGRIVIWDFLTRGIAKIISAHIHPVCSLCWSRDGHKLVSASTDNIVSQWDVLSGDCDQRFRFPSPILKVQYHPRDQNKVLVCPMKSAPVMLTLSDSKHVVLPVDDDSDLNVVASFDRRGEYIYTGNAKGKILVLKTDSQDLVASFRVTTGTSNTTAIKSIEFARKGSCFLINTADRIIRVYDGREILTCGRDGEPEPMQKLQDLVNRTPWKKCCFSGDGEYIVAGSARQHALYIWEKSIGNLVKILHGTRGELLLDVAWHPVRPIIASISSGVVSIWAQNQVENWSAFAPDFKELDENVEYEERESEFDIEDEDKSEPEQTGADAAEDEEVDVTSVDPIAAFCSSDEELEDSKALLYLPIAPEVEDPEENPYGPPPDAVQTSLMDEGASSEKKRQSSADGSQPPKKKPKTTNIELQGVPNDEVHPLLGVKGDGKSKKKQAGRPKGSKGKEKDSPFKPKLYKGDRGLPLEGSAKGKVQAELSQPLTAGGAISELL
Sequence of SET1b Complex (Q9UPS6 whole entry): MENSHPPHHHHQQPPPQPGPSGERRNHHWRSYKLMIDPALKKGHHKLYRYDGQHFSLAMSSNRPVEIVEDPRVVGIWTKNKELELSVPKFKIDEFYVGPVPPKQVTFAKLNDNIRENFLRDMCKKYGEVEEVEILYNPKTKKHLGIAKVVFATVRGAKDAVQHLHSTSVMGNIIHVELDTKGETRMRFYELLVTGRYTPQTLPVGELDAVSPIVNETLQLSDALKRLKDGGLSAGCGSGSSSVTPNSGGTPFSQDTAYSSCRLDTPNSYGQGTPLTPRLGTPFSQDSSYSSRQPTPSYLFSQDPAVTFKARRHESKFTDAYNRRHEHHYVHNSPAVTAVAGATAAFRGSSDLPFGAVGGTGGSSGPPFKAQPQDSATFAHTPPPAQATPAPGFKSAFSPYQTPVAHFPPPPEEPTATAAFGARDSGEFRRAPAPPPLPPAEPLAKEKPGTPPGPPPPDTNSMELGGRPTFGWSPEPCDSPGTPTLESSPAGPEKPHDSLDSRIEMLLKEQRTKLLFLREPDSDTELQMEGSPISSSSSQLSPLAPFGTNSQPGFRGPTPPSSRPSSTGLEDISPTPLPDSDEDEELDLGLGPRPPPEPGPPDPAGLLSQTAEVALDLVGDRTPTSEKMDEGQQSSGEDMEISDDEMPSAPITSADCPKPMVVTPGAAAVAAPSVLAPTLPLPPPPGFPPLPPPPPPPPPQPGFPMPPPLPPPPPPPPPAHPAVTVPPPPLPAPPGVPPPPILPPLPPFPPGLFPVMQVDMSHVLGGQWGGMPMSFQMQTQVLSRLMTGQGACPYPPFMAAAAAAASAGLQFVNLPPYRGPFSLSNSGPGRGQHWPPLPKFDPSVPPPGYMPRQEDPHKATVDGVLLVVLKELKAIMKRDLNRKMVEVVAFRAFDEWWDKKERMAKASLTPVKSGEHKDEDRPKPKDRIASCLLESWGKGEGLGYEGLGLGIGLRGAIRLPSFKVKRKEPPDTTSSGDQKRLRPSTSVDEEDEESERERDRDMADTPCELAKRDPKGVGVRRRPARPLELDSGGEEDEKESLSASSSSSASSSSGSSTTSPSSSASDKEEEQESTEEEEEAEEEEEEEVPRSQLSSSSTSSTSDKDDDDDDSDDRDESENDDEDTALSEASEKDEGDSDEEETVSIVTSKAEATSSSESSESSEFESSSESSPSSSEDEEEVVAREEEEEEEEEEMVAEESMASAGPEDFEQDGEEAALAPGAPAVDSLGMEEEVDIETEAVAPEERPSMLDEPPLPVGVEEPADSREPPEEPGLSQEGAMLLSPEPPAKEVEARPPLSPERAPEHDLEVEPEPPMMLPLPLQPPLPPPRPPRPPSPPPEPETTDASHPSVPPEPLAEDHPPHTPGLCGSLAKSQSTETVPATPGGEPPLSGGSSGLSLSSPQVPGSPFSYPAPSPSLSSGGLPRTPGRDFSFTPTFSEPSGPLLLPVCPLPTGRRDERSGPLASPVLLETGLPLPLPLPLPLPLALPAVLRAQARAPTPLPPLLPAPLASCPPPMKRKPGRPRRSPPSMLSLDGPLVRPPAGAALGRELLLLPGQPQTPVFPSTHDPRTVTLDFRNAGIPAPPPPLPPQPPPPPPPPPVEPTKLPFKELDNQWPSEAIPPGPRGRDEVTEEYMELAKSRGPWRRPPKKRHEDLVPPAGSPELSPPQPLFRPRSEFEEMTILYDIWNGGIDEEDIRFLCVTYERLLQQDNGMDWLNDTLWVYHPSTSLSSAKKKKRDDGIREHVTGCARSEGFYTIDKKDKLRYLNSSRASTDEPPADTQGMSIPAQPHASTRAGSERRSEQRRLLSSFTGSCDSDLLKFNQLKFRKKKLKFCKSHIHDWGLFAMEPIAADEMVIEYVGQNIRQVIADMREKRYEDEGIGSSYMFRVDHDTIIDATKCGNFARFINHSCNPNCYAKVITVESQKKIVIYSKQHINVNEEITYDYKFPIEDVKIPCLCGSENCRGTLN
Sequence of SET1b Complex (Q9C005 whole entry, further chain): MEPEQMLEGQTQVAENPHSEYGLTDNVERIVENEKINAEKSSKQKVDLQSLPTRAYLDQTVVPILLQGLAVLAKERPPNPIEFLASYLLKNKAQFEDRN
Sequence of SET1b Complex (Q9UBL3 whole entry, further chain): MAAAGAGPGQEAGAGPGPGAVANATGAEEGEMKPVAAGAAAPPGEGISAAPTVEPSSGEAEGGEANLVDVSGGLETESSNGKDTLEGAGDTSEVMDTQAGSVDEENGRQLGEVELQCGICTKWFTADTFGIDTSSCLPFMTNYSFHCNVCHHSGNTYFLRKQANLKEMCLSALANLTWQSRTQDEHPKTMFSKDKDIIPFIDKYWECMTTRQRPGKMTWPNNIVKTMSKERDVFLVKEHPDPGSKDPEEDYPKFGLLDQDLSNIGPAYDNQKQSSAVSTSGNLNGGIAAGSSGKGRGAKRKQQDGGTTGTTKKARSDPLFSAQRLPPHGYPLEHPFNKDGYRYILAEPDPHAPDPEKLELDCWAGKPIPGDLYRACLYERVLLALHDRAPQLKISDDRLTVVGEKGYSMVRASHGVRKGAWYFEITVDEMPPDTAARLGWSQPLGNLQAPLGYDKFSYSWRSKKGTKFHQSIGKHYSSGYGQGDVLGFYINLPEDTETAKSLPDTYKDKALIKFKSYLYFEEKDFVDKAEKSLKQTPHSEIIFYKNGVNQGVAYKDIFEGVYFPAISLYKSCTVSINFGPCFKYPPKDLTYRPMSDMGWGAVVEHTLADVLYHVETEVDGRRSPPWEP
Procedure: (§1) We next assessed selectivity of MS67 against 22 protein methyltransferases (table S2) and a broad panel of common drug targets including 45 kinases (table S3) and 44 G protein–coupled receptors (GPCR), ion channels, and transporters (table S4). […] We subsequently determined that MS67 had moderate binding affinity (Ki = 1.0 ± 0.8 μM) to Sigma 2 receptor (fig. S10).

MAPK2 = biological target: T1, MAPK2 (Homo sapiens, UniProt P28482); parameters: kinase selectivity panel, single concentration, duplicate
T1 construct: gene MAPK1
Procedure: as §1

IRAK4 = IRAK4 (Homo sapiens, UniProt Q9NWZ3); parameters: kinase selectivity panel, single concentration, duplicate
Sequence of IRAK4 (Q9NWZ3 whole entry): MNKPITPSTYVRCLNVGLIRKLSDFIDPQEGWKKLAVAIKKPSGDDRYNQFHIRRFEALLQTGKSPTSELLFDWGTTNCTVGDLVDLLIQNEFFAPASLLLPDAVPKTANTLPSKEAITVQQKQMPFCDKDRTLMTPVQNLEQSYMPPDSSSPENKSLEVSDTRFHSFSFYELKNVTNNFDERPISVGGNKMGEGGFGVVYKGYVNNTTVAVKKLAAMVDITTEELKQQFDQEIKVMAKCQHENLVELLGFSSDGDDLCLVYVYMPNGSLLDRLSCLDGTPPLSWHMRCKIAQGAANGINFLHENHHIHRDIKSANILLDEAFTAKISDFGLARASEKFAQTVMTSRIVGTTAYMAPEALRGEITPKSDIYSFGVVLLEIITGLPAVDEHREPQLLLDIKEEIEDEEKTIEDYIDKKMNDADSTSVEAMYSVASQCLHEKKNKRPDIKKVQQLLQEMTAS
Procedure: as §1

Aurora-A = biological target: T2, Aurora-A (Homo sapiens, UniProt O14965); parameters: kinase selectivity panel, single concentration, duplicate
T2 construct: gene AURKA
Procedure: as §1

TAO2 = biological target: T3, TAO2 (Homo sapiens, UniProt Q9UL54); parameters: kinase selectivity panel, single concentration, duplicate
T3 construct: gene TAOK2
Procedure: as §1

Mnk2 = biological target: T4, Mnk2 (Homo sapiens, UniProt Q9HBH9); parameters: kinase selectivity panel, single concentration, duplicate
T4 construct: gene MKNK2
Procedure: as §1

CDK1/cyclinB = CDK1/cyclinB (Homo sapiens, UniProt P06493); parameters: kinase selectivity panel, single concentration, duplicate
Sequence of CDK1/cyclinB (P06493 whole entry): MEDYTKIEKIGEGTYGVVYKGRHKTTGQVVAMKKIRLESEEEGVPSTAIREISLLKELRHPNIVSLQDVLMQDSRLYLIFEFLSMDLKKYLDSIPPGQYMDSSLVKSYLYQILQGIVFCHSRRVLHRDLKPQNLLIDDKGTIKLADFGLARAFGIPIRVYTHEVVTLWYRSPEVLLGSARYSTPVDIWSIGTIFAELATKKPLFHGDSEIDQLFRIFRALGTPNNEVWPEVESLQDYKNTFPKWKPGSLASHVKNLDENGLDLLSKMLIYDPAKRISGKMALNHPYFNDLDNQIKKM
Sequence of CDK1/cyclinB (P14635 whole entry partner): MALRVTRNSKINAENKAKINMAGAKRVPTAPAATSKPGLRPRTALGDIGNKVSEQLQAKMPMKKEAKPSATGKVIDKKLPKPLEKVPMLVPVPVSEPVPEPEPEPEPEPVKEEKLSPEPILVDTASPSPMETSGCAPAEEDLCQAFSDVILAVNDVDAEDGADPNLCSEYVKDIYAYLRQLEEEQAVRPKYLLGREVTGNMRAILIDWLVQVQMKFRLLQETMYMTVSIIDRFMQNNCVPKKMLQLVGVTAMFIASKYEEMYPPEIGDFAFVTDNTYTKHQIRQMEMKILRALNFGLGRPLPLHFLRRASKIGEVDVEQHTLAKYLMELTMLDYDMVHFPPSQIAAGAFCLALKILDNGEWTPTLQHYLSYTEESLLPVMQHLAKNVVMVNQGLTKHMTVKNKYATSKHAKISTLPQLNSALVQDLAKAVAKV
Procedure: as §1

EphB4 = EphB4 (Homo sapiens, UniProt P54760); parameters: kinase selectivity panel, single concentration, duplicate
Procedure: as §1

PKBα = biological target: T5, PKBα (Homo sapiens, UniProt P31749); parameters: kinase selectivity panel, single concentration, duplicate
T5 construct: gene AKT1
Procedure: as §1

ROCK-I = biological target: T6, ROCK-I (Homo sapiens, UniProt Q13464); parameters: kinase selectivity panel, single concentration, duplicate
T6 construct: gene ROCK1
Procedure: as §1

Lck = Lck (Homo sapiens, UniProt P06239); parameters: kinase selectivity panel, single concentration, duplicate
Procedure: as §1

MAP4K4 = MAP4K4 (Homo sapiens, UniProt O95819); parameters: kinase selectivity panel, single concentration, duplicate
Procedure: as §1

CaMKIIα = biological target: T7, CaMKIIα (Homo sapiens, UniProt Q9UQM7); parameters: kinase selectivity panel, single concentration, duplicate
T7 construct: gene CAMK2A
Procedure: as §1

cSRC = biological target: T8, cSRC (Homo sapiens, UniProt P12931); parameters: kinase selectivity panel, single concentration, duplicate
T8 construct: gene SRC
Procedure: as §1

PDK1 = biological target: T9, PDK1 (Homo sapiens, UniProt O15530); parameters: kinase selectivity panel, single concentration, duplicate
T9 construct: gene PDPK1
Procedure: as §1

EGFR = EGFR (Homo sapiens, UniProt P00533); parameters: kinase selectivity panel, single concentration, duplicate
Procedure: as §1

CDK2/cyclinA = CDK2/cyclinA (Homo sapiens, UniProt P24941); parameters: kinase selectivity panel, single concentration, duplicate
Procedure: as §1

MARK1 = MARK1 (Homo sapiens, UniProt Q9P0L2); parameters: kinase selectivity panel, single concentration, duplicate
Procedure: as §1

EphA3 = EphA3 (Homo sapiens, UniProt P29320); parameters: kinase selectivity panel, single concentration, duplicate
Procedure: as §1

KDR = KDR (Homo sapiens, UniProt P35968); parameters: kinase selectivity panel, single concentration, duplicate
Procedure: as §1

Abl = biological target: T10, Abl (Homo sapiens, UniProt P00519); parameters: kinase selectivity panel, single concentration, duplicate
T10 construct: gene ABL1
Procedure: as §1

CHK2 = biological target: T11, CHK2 (Homo sapiens, UniProt O96017); parameters: kinase selectivity panel, single concentration, duplicate
T11 construct: gene CHEK2
Procedure: as §1

TRKA = biological target: T12, TRKA (Homo sapiens, UniProt P04629); parameters: kinase selectivity panel, single concentration, duplicate
T12 construct: gene NTRK1
Procedure: as §1

IKKα = biological target: T13, IKKα (Homo sapiens, UniProt O15111); parameters: kinase selectivity panel, single concentration, duplicate
T13 construct: gene CHUK
Procedure: as §1

FGFR1 = FGFR1 (Homo sapiens, UniProt P11362); parameters: kinase selectivity panel, single concentration, duplicate
Procedure: as §1

JNK1α1 = biological target: T14, JNK1α1 (Homo sapiens, UniProt P45983); parameters: kinase selectivity panel, single concentration, duplicate
T14 construct: gene MAPK8; isoform alpha1
Procedure: as §1

MAPKAP-K2 = biological target: T15, MAPKAP-K2 (Homo sapiens, UniProt P49137); parameters: kinase selectivity panel, single concentration, duplicate
T15 construct: gene MAPKAPK2
T15 sequence (P49137 whole entry): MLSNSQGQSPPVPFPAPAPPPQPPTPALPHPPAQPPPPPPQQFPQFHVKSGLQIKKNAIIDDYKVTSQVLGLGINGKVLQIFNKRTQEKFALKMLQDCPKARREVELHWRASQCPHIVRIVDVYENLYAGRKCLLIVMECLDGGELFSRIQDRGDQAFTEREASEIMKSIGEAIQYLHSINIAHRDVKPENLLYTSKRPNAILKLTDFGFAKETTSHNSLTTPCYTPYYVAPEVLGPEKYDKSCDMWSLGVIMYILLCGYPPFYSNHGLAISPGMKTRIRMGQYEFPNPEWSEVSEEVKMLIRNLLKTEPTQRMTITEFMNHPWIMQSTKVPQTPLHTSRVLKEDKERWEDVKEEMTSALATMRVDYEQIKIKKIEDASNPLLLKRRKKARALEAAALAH
Procedure: as §1

PAK4 = PAK4 (Homo sapiens, UniProt O96013); parameters: kinase selectivity panel, single concentration, duplicate
Procedure: as §1

Cc1ncsc1-c1ccc([C@H](C)NC(=O)[C@@H]2C[C@@H](O)CN2C(=O)[C@@H](NC(=O)CNC(=O)c2ccc(F)c(-c3ccc(N4C[C@@H](C)N(C)[C@@H](C)C4)c(NC(=O)c4c[nH]c(=O)cc4C(F)(F)F)c3)c2)C(C)(C)C)cc1 [MS67]
remaining activity at 10 µM (SET1b Complex; read-out: Enzyme % Activity (relative to DMSO controls) / MS67 / 10 / Data 1:): 94.9%
remaining activity at 10 µM (SET1b Complex; read-out: Enzyme % Activity (relative to DMSO controls) / MS67 / 10 / Data 2:): 92.1%
inhibition at 1 µM (MAPK2): < 10%
inhibition at 1 µM (IRAK4): < 10%
inhibition at 1 µM (Aurora-A): < 10%
inhibition at 1 µM (TAO2): < 10%
inhibition at 1 µM (Mnk2): < 10%
inhibition at 1 µM (CDK1/cyclinB): < 10%
inhibition at 1 µM (EphB4): < 10%
inhibition at 1 µM (PKBα): < 10%
inhibition at 1 µM (ROCK-I): < 10%
inhibition at 1 µM (Lck): < 10%
inhibition at 1 µM (MAP4K4): < 10%
inhibition at 1 µM (CaMKIIα): < 10%
inhibition at 1 µM (cSRC): < 10%
inhibition at 1 µM (PDK1): < 10%
inhibition at 1 µM (EGFR): < 10%
inhibition at 1 µM (CDK2/cyclinA): < 10%
inhibition at 1 µM (MARK1): < 10%
inhibition at 1 µM (EphA3): < 10%
inhibition at 1 µM (KDR): < 10%
inhibition at 1 µM (Abl): < 10%
inhibition at 1 µM (CHK2): < 10%
inhibition at 1 µM (TRKA): < 10%
inhibition at 1 µM (IKKα): < 10%
inhibition at 1 µM (FGFR1): < 10%
inhibition at 1 µM (JNK1α1): < 10%
inhibition at 1 µM (MAPKAP-K2): < 10%
inhibition at 1 µM (PAK4): < 10%
